Results on eight compounds are retold here after article PMC6270106, “Chemical Constituents from the Leaves of Annona reticulata and Their Inhibitory Effects on NO Production” (Molecules, 2013).

A word on the inhibition: it is how much of the control response was suppressed. The IC50 is the concentration that gives 50% inhibition. High values mean weaker potency in that assay, low ones greater potency in that assay. One may read the melting point as the temperature, or range, at which the solid turns liquid.

SMILES strings stand for the structures. Where two headings read alike, the source gives them in different places.

The test system of data set [1] is LPS-induced iNOS-dependent NO production in RAW 264.7 cells. The experiment in a line: Inhibition of LPS-induced iNOS-dependent NO production (Griess nitrite assay). In kind it is cell-based, murine. To be noted: RAW 264.7, 100 ng/mL LPS, 24 h; for NO level: nitrite by Griess, in µM (unit assumed); for inhibition at 12.5 µM / inhibition at 25 µM / inhibition at 50 µM / IC50 / inhibition at 100 µM: Mus musculus, RAW264.7; for inhibition at 12.5 µM: read-out: NO inhibition (% of control); for inhibition at 25 µM / inhibition at 50 µM / inhibition at 100 µM: read-out: NO inhibition (% of control) (converted). From the text: The isolated compounds 1–9 were subjected into the examination of their effects on LPS-induced iNOS-dependent NO production in RAW 264.7 cells. […] The inhibitory effects of 1, 4 and 9 were less obvious. […] Among the tested compounds, 2, and 5–8 belonged to the ent-kaurane diterpenoids noted for the occurrence in the Annona species.
NO production was indirectly assessed by measuring the nitrite levels in the cultured media and serum determined by a colorimetric method based on the Griess reaction. The cells were incubated with a test sample in the presence of LPS (100 ng/mL) at 37 °C for 24 h. Then, cells were dispensed into 96-well plates, and 100 μL of each supernatant was mixed with the same volume of Griess reagent (1% sulfanilamide, 0.1% naphthyl ethylenediamine dihydrochloride, and 5% phosphoric acid) and incubated at room temperature for 10 min, the absorbance was measured at 540 nm with a Micro-Reader (Molecular Devices). By using sodium nitrite to generate a standard curve, the concentration of nitrite was measured form absorbance at 540 nm.
Experimental results were presented as the mean ± standard deviation (SD) of three parallel measurements. Statistical comparisons were made by Student’s t-test. IC50 values were estimated using a non-linear regression algorithm (SigmaPlot 8.0; SPSS Inc. Chicago, IL, USA). Statistical significance is expressed as * p < 0.05, ** p < 0.01, and *** p < 0.001.
On the technique in general: Nitrite, measured by Griess reagent, commonly stands in for NO production.

Data set [2] has as its system RAW 264.7 cells.
Experimental: (§1) A murine macrophage cell line RAW264.7 (BCRC No. 60001) was purchased from the Bioresources Collection and Research Center (BCRC) of the Food Industry Research and Development Institute (Hsinchu, Taiwan). Cells were cultured in plastic dishes containing Dulbecco’s Modified Eagle Medium (DMEM, Sigma, St. Louis, MO, USA) supplemented with 10% fetal bovine serum (FBS, Sigma, USA) in a CO2 incubator (5% CO2 in air) at 37°C and subcultured every 3 days at a dilution of 1:5 using 0.05% trypsin–0.02% EDTA in Ca^2+-, Mg^2+- free phosphate-buffered saline (DPBS).
(§2) Cells (2 × 10^5) were cultured in 96-well plate containing DMEM supplemented with 10% FBS for 1 day to become nearly confluent. Then cells were cultured with samples in the presence of 100 ng/mL LPS for 24 h. After that, the cells were washed twice with DPBS and incubated with 100 μL of 0.5 mg/mL MTT for 2 h at 37 °C testing for cell viability. The medium was then discarded and 100 μL dimethyl sulfoxide (DMSO) was added. After 30-min incubation, absorbance at 570 nm was read using a microplate reader (Molecular Devices, Sunnyvale, CA, USA).
Data set [3] relates to LPS-induced RAW264.7 macrophages. Details: method as in PMID 21211951. To be noted: cited from earlier work.
Data set [4] has as its system RAW 264.7 cells. As to the kind of experiment: Cell viability (MTT) in the presence of LPS. To be noted: RAW 264.7, 100 ng/mL LPS, 24 h; for Cell viability (% of control): MTT; for Cell toxicity (in words): 12.5–100 μM.
Experimental: as §1, §2
Data set [5] deals with platelet aggregation. Further details: method as in PMID 12398544. To be noted: isolated from the stems of A. squamosa; cited from earlier work.

Consider `C=C(C)C(CC[C@@H](CO)[C@H]1CC[C@@]2(C)C3CCC4C(C)(C)[C@@H](O)[C@H](O)C[C@@]45C[C@@]35CC[C@]12C)C(C)C` (some centres unmarked) [Compound 1, annonaretin A], for which the NO level in data set [1] (12.5 μM) was 36.6 ± 1.9; in data set [1] (25 μM), 33.5 ± 0.9. Also, in data set [1] (12.5 μM), the inhibition at 12.5 µM was 19.3 ± 4.2%. The inhibition at 25 µM in data set [1] (25 μM) was 26.2%. Also, the “Inhibitory effect on NO production (in words)” value in data set [1] is “less obvious”. The “Cell viability (% of control)” value in data set [2] (12.5 µM) is recorded as 88.0 ± 1.5 % of control; in data set [2] (25 µM), 81.2 ± 1.8 % of control; in data set [2] (50 µM) it was 73.0 ± 3.6 % of control; in data set [2] (100 µM), 66.9 ± 5.5 % of control.
For `C=C1C[C@@]23CC[C@H]4[C@@](C)(CCC[C@@]4(C)C(=O)O)[C@@H]2CC[C@@H]1C3` [Compound 2, kaurenoic acid], the values for the NO level in data set [1] (12.5 μM), in data set [1] (25 μM) and in data set [1] (50 μM) were 34.3 ± 4.7, 35.1 ± 1.2 and 22.7 ± 0.5, respectively. The inhibition at 12.5 µM in data set [1] (12.5 μM) stood at 24.5 ± 10.2%. Further, the inhibition at 25 µM in data set [1] (25 μM) is 22.7%. Moreover, in data set [1] (50 μM), the inhibition at 50 µM is 50%. The IC50 in data set [1] was determined as 50 ± 0.3 µM. The “Inhibition of NO production, prostaglandin E2 release, cyclooxygenase-2 and inducible nitric oxide synthase expression (in words)” value in data set [3] is reported as “inhibit NO production”. The “Cell viability (% of control)” value is listed as 98.0 ± 2.2 % of control in data set [4] (12.5 μM), 91.0 ± 3.6 % of control in data set [4] (25 μM), 82.9 ± 1.2 % of control in data set [4] (50 μM) and 65.7 ± 8.6 % of control in data set [4] (100 μM). Further, the “Cell toxicity (in words)” value in data set [4] was “Some cell toxicity was observed”.
With `CC[C@H](CC[C@@H](C)[C@H]1CC[C@H]2[C@@H]3CC=C4C[C@@H](O)CC[C@]4(C)[C@H]3CC[C@]12C)C(C)C` [Compound 4, β-sitosterol], the NO level in data set [1] (12.5 μM) is recorded as 38.4 ± 0.7; in data set [1] (25 μM), 38.6 ± 3.3. In addition, the inhibition at 12.5 µM in data set [1] (12.5 μM) stood at 15.5 ± 1.5%. Besides, in data set [1] (25 μM), the inhibition at 25 µM is 15.1%. Further, in data set [1], the “Inhibitory effect on NO production (in words)” value is given as “less obvious”. Besides, the “Cell viability (% of control)” value in data set [4] (12.5 μM) is given as 82.8 ± 2.7 % of control; in data set [4] (25 μM), 80.7 ± 3.8 % of control; in data set [4] (50 μM), 65.3 ± 2.3 % of control; in data set [4] (100 μM), 55.8 ± 2.7 % of control. The “Cell toxicity (in words)” value in data set [4] is “Some cell toxicity was observed”.
Turning to `C[C@@]12CCC[C@](C)(C=O)C1CCC13CC(CCC12)C(C(=O)O)C3` (stereo partly drawn) [Compound 5, 16α-hydro-19-al-ent-kauran-17-oic acid], the NO level in data set [1] (12.5 μM) came out at 38.3 ± 1.3; in data set [1] (25 μM), 33.1 ± 1.0; in data set [1] (50 μM) it was 22.1 ± 1.5; in data set [1] (100 μM), 14.8 ± 0.7. The inhibition at 12.5 µM in data set [1] (12.5 μM) was determined as 15.5 ± 2.8%. For the same compound, the inhibition at 25 µM in data set [1] (25 μM) was 27.1%. The inhibition at 50 µM in data set [1] (50 μM) was 51.4%. Moreover, the inhibition at 100 µM in data set [1] (100 μM) is 67.3%. This compound came in with an IC50 in data set [1] of 48.6 ± 1.2 µM. The “Anti-platelet aggregation activity (in words)” value in data set [5] is on record as “exhibit anti-platelet aggregation activity”. The “Cell viability (% of control)” value in data set [4] (12.5 μM) is recorded as 98.9 ± 5.2 % of control; in data set [4] (25 μM), 96.5 ± 9.2 % of control; in data set [4] (50 μM) it was 95.9 ± 8.6 % of control; in data set [4] (100 μM) it was 80.2 ± 5.7 % of control.
`CC[C@H](CC[C@@H](C)[C@H]1CC[C@H]2[C@@H]3C[C@@H](O)C4=CC(=O)CC[C@]4(C)[C@H]3CC[C@]12C)C(C)C` [Compound 6, 6β-hydroxystigmast-4-en-3-one]: the NO level is recorded as 37.0 ± 1.8 in data set [1] (12.5 μM), 33.1 ± 2.4 in data set [1] (25 μM), 22.9 ± 1.1 in data set [1] (50 μM) and 15.1 ± 0.3 in data set [1] (100 μM). Moreover, the inhibition at 12.5 µM in data set [1] (12.5 μM) was 18.5 ± 4%. Further, in data set [1] (25 μM), the inhibition at 25 µM is 27.1%. In data set [1] (50 μM), the inhibition at 50 µM is 49.5%. Also, in data set [1] (100 μM), the inhibition at 100 µM was 66.7%. In addition, the IC50 in data set [1] was 51.5 ± 0.5 µM. Besides, the “Cell viability (% of control)” value in data set [4] (12.5 μM) is recorded as 94.8 ± 3.1 % of control; in data set [4] (25 μM), 83.7 ± 3.5 % of control; in data set [4] (50 μM), 83.5 ± 3.0 % of control; in data set [4] (100 μM), 81.3 ± 2.8 % of control.
Regarding `CC(=O)OCC1CC23CCC4[C@@](C)(CCC[C@]4(C)C(=O)O)C2CCC1C3` (stereo partly drawn) [Compound 7, 17-acetoxy-16β-ent-kauran-19-oic acid], the NO level in data set [1] (12.5 μM) is recorded as 42.6 ± 0.7; in data set [1] (25 μM), 40.6 ± 2.8; in data set [1] (50 μM), 23.7 ± 0.2; in data set [1] (100 μM), 14.3 ± 0.3. For the same compound, the inhibition at 12.5 µM in data set [1] (12.5 μM) came to 6.2 ± 1.5%. For the same compound, the inhibition at 25 µM in data set [1] (25 μM) is 10.6%. Also, the inhibition at 50 µM in data set [1] (50 μM) is 47.7%. Besides, the inhibition at 100 µM in data set [1] (100 μM) was 68.5%. Also, the IC50 in data set [1] turned out to be 55.5 ± 0.3 µM. The “Cell viability (% of control)” value in data set [4] (12.5 μM) was 98.6 ± 3.1 % of control; in data set [4] (25 μM), 93.6 ± 4.0 % of control; in data set [4] (50 μM), 92.5 ± 2.8 % of control; in data set [4] (100 μM), 83.7 ± 1.6 % of control.
As for `C[C@@]12CCC[C@](C)(C(=O)O)C1CCC13CC(CCC12)C(C(=O)O)C3` (stereo partly drawn) [Compound 8, 16α-hydro-ent-kauran-17,19-dioic acid], the melting point lay within 120 to 121 °C. In data set [1] (12.5 μM), the NO level is given as 39.8 ± 1.2 and the inhibition at 12.5 µM is 12.3 ± 2.6%. Besides, in data set [1] (25 μM), the NO level is given as 35.4 ± 0.8 and the inhibition at 25 µM was 21.9%. For the same compound, in data set [1] (50 μM), the NO level amounted to 23.5 ± 0.9 and the inhibition at 50 µM is 48.2%. In data set [1] (100 μM), the NO level came to 14.4 ± 0.3 and the inhibition at 100 µM was 68.3%. This compound also displayed an IC50 in data set [1] of 54.5 ± 0.8 µM. Also, in data set [4] (12.5 μM), the “Cell viability (% of control)” value is recorded as 98.4 ± 3.2 % of control. Moreover, the “Cell viability (% of control)” value in data set [4] (25 μM) is listed as 94.0 ± 2.6 % of control. In addition, in data set [4] (50 μM), the “Cell viability (% of control)” value was 88.6 ± 2.6 % of control. The “Cell viability (% of control)” value in data set [4] (100 μM) is listed as 82.4 ± 1.2 % of control.
With `COc1ccc([C@@H]2CC(=O)c3ccc(OC)cc3O2)cc1` [Compound 9, (2S)-di-O-methylquiritigenin], the NO level in data set [1] (12.5 μM) is 42.0 ± 1.2; in data set [1] (25 μM), 40.4 ± 0.7; in data set [1] (50 μM), 25.9 ± 2.3. Moreover, the inhibition at 12.5 µM in data set [1] (12.5 μM) worked out at 7.5 ± 2.7%. For the same compound, in data set [1] (25 μM), the inhibition at 25 µM was 11%. For the same compound, in data set [1] (50 μM), the inhibition at 50 µM is 42.9%. Also, in data set [1], the “Inhibitory effect on NO production (in words)” value is listed as “less obvious”. Also, the “Cell viability (% of control)” value is 99.9 ± 4.8 % of control in data set [4] (12.5 μM), 90.0 ± 1.6 % of control in data set [4] (25 μM), 82.6 ± 2.7 % of control in data set [4] (50 μM) and 76.2 ± 1.1 % of control in data set [4] (100 μM). Besides, the “Cell toxicity (in words)” value in data set [4] is reported as “Some cell toxicity was observed”.
